Where two headings read alike, the source gives them in different places. Marks after values point to notes of the source that are not given here.
Key:
[1] = molecular target: T1, FXR ligand binding domain (LBD) (Homo sapiens, UniProt Q96RI1); assay: AlphaScreen assay: FXR LBD recruitment of coregulator peptide motifs (SRC2-3, SRC1-2); assay type: biochemical; details: Table 2
T1 construct: made in house
T1 sequence (Q96RI1 262-486 limits assumed): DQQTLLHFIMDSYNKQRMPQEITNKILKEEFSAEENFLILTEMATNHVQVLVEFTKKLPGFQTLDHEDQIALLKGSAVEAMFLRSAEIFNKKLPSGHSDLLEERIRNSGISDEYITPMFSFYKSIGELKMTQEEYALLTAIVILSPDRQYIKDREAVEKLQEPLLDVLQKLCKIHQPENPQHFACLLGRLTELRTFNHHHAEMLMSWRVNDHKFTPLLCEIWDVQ

[2] = molecular target: T2, full-length FXR (Homo sapiens, UniProt Q96RI1); assay: Cell-based FXR transactivation, EcRE luciferase reporter in COS-7 cells; details: Table 2; for Cell-based FXR transactivation Fold changes by 5 μM compound: positive: induction, minus: repression; for EC50: EcRE luciferase reporter
T2 construct: The cells were co-transfected with plasmids encoding full-length FXR and the cognate luciferase reporter EcRE-Luc; expressed in transfected cells; host or cells: COS-7
T2 sequence (Q96RI1 1-486): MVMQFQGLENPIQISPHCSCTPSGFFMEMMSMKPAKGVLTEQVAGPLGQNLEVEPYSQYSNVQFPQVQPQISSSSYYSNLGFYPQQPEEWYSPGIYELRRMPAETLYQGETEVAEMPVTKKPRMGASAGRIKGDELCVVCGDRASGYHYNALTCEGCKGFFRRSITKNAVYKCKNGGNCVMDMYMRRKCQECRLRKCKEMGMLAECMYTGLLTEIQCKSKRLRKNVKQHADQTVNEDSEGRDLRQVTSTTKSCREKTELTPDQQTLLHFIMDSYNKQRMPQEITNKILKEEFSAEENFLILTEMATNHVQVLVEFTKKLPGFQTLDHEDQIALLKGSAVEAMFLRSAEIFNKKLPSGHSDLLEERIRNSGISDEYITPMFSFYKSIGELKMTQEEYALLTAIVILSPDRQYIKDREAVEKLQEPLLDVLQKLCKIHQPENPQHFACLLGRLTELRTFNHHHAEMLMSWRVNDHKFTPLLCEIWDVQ
In short: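 COS-7 cells were transiently cotransfected with full-length FXR, EcRE-Luc reporter and a renilla control. Ligands were added 5 h after transfection, and cells were harvested 24 h later. Firefly luciferase was normalized to renilla in a dual-luciferase read-out.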

[3] = test system: human colorectal adenocarcinoma HCT15 cells; assay: MTT cell viability assay, HCT15; assay type: cell-based; details: 48 h, read-out: Cell viability as a percentage of the cells treated with DMSO, HCT15; for viability at 20 µM: HCT-15, 20 uM; for viability at 40 µM: HCT-15, 40 uM
In short: (§1)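 First, cells are cultured in DMEM with 10% fetal bovine serum. Next, compound is applied at 20 uM or 40 uM. Finally, MTT measures metabolic activity, normalised to DMSO-treated wells as percent viability.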

[4] = test system: RA-resistant human colon cancer HCT116 cells; assay: MTT cell viability assay, HCT116; assay type: cell-based; details: 48 h, read-out: Cell viability as a percentage of the cells treated with DMSO, HCT116; for viability at 20 µM: HCT-116, 20 uM; for viability at 40 µM: HCT-116, 40 uM
In short: as §1

[5] = test system: human hepatoma HepG2 cells; assay: MTT cell viability assay, HepG2; assay type: cell-based; details: 48 h, read-out: Cell viability as a percentage of the cells treated with DMSO, HepG2
In short: as §1

[6] = test system: human cervical carcinoma Hela cells; assay: MTT cell viability assay, Hela; assay type: cell-based; details: 48 h, read-out: Cell viability as a percentage of the cells treated with DMSO, Hela
In short: as §1

[7] = test system: human breast cancer MCF7 cells; assay: MTT cell viability assay, MCF-7; assay type: cell-based; details: 48 h, read-out: Cell viability as a percentage of the cells treated with DMSO, MCF-7
In short: as §1

[8] = test system: db/db mice; assay: Hepatic triglyceride, liver histology, serum ALT and ALP in high-fat diet fed db/db mice; assay type: in vivo, mouse; details: for Hepatic triglyceride (mM/g): vehicle 148 ± 14; for Serum ALP (U/L): vehicle 129 ± 15
In short: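 High-fat diet fed db/db mice aged 8-10 weeks dosed 10 mg/kg compound once daily for 10 days. Liver sections stained with H&E and 0.3% oil red O; hepatic triglyceride measured by tissue assay kit; serum ALP and ALT activities measured by kit.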

[9] = SRC1-2 peptide, read-out: EC50 (μM) of FXR binding by AlphaScreen assay recruit SRC1-2
[10] = SRC2-3 peptide, read-out: EC50 (μM) of FXR binding by AlphaScreen assay recruit SRC2-3
[11] = 10 mg/kg for 10 days, vehicle 377 ± 48, Table 15
[12] = 10 mg/kg once daily for 10 days
[13] = 10 mg/kg once daily for 10 days, vehicle 377 ± 48, Table 17

SMILES	EC50 [1, 9] [µM]	EC50 [1, 10] [µM]	Cell-based FXR transactivation Fold changes by 5 μM compound [2]	EC50 [2] [nM]	viability at 20 µM [3] [%]	viability at 40 µM [3] [%]	viability at 20 µM [4] [%]	viability at 40 µM [4] [%]	viability at 20 µM [5] [%]	viability at 40 µM [5] [%]	viability at 20 µM [6] [%]	viability at 40 µM [6] [%]	viability at 20 µM [7] [%]	viability at 40 µM [7] [%]	Hepatic triglyceride (mM/g) ([8]; 10 mg/kg for 10 days)	Serum ALT (U/L) [8, 11]	Serum ALP (U/L) [8, 12]	Serum ALT (U/L) [8, 13]
CC1(C)C2CCC1(C)C(OC(=O)c1ccncc1)C2 (centres unmarked) [XD-6, 1,7,7-trimethyl-bicyclo[2.2.1]-heptan-2-yl isonicotinate]	1 to 10	1 to 10	>10	1000 to 10000	57 ± 2	42 ± 3	61 ± 1	45 ± 2	99 ± 1	70 ± 2	100 ± 1	76 ± 1	100 ± 8	61	90 ± 11^b mM/g	101 ± 28 ^a U/L		
CC1(C)C2CCC1(C)C(OC(=O)c1ccc(=O)[nH]c1)C2 (centres unmarked) [XD-8, 1,7,7-trimethyl-bicyclo[2.2.1]-heptan-2-yl 6-oxo-1,6-dihydropyridine-3-carboxylate]	1 to 10	1 to 10	4	1000 to 10000	78 ± 4	60 ± 4	92 ± 7	60 ± 3	90	64 ± 3	97	71 ± 3	94 ± 10	75	102 ± 8 ^c mM/g	115 ± 31 ^a U/L		
CC1(C)C2CCC1(C)C(OC(=O)c1ccc(=O)oc1)C2 (centres unmarked) [XD-9, 1,7,7-trimethyl-bicyclo[2.2.1]-heptan-2-yl 6-oxo-6H-pyran-3-carboxylate]	1 to 10	1 to 10	4	1000 to 10000	49 ± 2	42 ± 3	58 ± 2	25 ± 2	90 ± 3	64 ± 3	80 ± 3	59 ± 5	72 ± 6	31	93 ± 14 ^a mM/g	121 ± 33 ^a U/L		
O=C(OC1CCCCCCCCCCC1)c1ccc(O)cc1 [XD-11, cyclododecyl 4-hydroxybenzoate]	1 to 10	1 to 10	4	1000 to 10000	89 ± 2	78 ± 3	92 ± 2	70 ± 7	100 ± 1	97 ± 1	100 ± 3	100 ± 2	100 ± 7	100 ± 2	102 ± 13 ^a mM/g	106 ± 26 ^a U/L		

Further lines, with some results ahead:

EC50 [1, 9] [µM]	EC50 [1, 10] [µM]	Cell-based FXR transactivation Fold changes by 5 μM compound [2]	EC50 [2] [nM]	SMILES	viability at 20 µM [3] [%]	viability at 40 µM [3] [%]	viability at 20 µM [4] [%]	viability at 40 µM [4] [%]	viability at 20 µM [5] [%]	viability at 40 µM [5] [%]	viability at 20 µM [6] [%]	viability at 40 µM [6] [%]	viability at 20 µM [7] [%]	viability at 40 µM [7] [%]	Hepatic triglyceride (mM/g) ([8]; 10 mg/kg for 10 days)	Serum ALT (U/L) [8, 11]	Serum ALP (U/L) [8, 12]	Serum ALT (U/L) [8, 13]
> 10	> 10	1.5		Nc1ccc(C(=O)OC2CCCCCC2)cc1 [XD-12, cycloheptyl 4-aminobenzoate]	65 ± 4	54 ± 4	77 ± 3	65 ± 3	100 ± 2	97 ± 3	100 ± 2	90 ± 5	100 ± 4	82	103 ± 20 ^a mM/g	199 ± 37 ^a U/L		
< 1	< 1	4	< 1000	CC1(C)C2CCC1(C)C(OC(=O)c1ccc(F)c(Br)c1)C2 (centres unmarked) [XD-13, 1,7,7-trimethyl-bicyclo[2.2.1]-heptan-2-yl 3-bromo-4-fluoro-benzoate]	100 ± 2	71 ± 3	100 ± 2	70 ± 5	92 ± 3	86 ± 1	100 ± 3	96 ± 1	100 ± 7	100 ± 1			92 ± 7^c U/L	135 ± 5^c U/L
< 1	< 1	3	< 1000	Cc1cc(C(=O)OC2CCCCCCC2)ccc1O [XD-17, cyclooctyl 4-hydroxy-3-methylbenzoate]	52 ± 2	24 ± 3	82 ± 2	27 ± 3	87	40 ± 1	83 ± 4	39 ± 1	91 ± 9	25			76 ± 17^a U/L	185 ± 51^a U/L
< 1	< 1	3	< 1000	COc1cc(C(=O)OC2CCCCCCC2)ccc1O [XD-18, cyclooctyl 4-hydroxy-3-methoxybenzoate]	91 ± 4	40 ± 4	92 ± 1	30 ± 2	96 ± 3	55 ± 1	100 ± 3	71 ± 3	98 ± 10	32			77 ± 9^c U/L	129 ± 19^b U/L
1 to 10	1 to 10	6	1000 to 10000	CC1(C)C2CCC1(C)C(OC(=O)C1CCC(O)CC1)C2 (centres unmarked) [XD-20, 1,7,7-trimethyl-bicyclo[2.2.1]-heptan-2-yl 4-hydroxy-cyclohexane-carboxylate]	100 ± 4	84 ± 4	79 ± 2	70 ± 7	100 ± 5	100 ± 2	100 ± 5	96 ± 1	85	82 ± 1	60 ± 15^b mM/g	115 ± 29 ^a U/L	73 ± 19^a U/L	115 ± 29^a U/L
< 0.5	< 0.5	3	< 1000	O=C(OC1CCC2CCCCC2C1)c1ccc(O)cc1 (centres unmarked) [XD-28, decahydro-naphthalen-2-yl 4-hydroxy-benzoate]	99 ± 4	81 ± 4	100 ± 4	88 ± 4	100 ± 4	96 ± 4	94 ± 4	92 ± 4	100 ± 4	98 ± 4	87 ± 10 ^c mM/g	103 ± 17^b U/L		

From patent US20180116993A1, “MODULATORS OF FARNESOID X RECEPTOR AND METHODS FOR THE USE THEREOF” (XIAMEN UNIVERSITY, priority 2015, published 2018)
